For one test, the system named is MDA-MB-231 cells. More on the design: method as in Patel et al. (2004). As to conditions: inhibition of cell proliferation by 50%; ref Patel et al. (2004); read-out: Cellular IC50, MDA-MB-231; cited from earlier work.
For a further test, the system named is cyclin D1. The experiment in a line: Western blotting for cyclin D1 in MCF-7 cells. The format is cell-based, human. As to conditions: 6 days (4HPR 4 days). The method, then: (§1) At the end of the treatment, cells were scrapped and collected by washing with ice-cold PBS in a centrifuge tube. Cells were centrifuged at 2500 r.p.m. for 10 min, the pellet was again washed with ice-cold PBS and centrifuged. The cell pellet was then suspended in chilled cell lysis buffer (0.1 M Tris–HCl, 0.5% Triton X-100, protease inhibitor cocktail) and sonicated on ice for 10–15 s. The homogenate was kept on ice for 30 min and then centrifuged at 13 000 r.p.m. for 30 min. The supernatant was used as cell lysate. The cell lysates were stored at −80°C. Protein concentration of the cell lysates was determined using Bio-Rad protein assay reagents.
(§2) Protein lysates from MCF-7 and T47D cells were subjected to sodium dodecyl sulphate–polyacrylamide gel electrophoresis (SDS–PAGE) and immunoblotted for different proteins. […] Immunoreactive bands were visualised using the enhanced chemiluminescence detection reagents and analysis system (Amersham Bioscences) according to the manufacturer's instructions and quantified by densitometry using ImageQuant software version 5.
Figure 5 Western blotting of whole-cell lysates of treated MCF-7 and T47D cells for the expression of Cyclin D1. […] Numbers below the blot show fold decrease in expression of the protein as analysed by ImageQuant densitometry analysis. […]
(In general: A western blot detects proteins with antibodies after separation by electrophoresis.)

The test system of a further test is T47D cells. As to the kind of experiment: TUNEL apoptosis assay, T47D. The format is cell-based, human. The conditions noted are these: 5 μM; 6 days; control about 1.5%. The source says: The cells were rinsed with PBS and then the stained-labelled apoptotic cells were mounted using DAPI (diamidino-2-phenylindole 2HCl)-glycerol and visualised with a fluorescent microscope using two filters (1) for TUNEL stained cells, and (2) for DAPI stained cells, which represents all the cells (nuclei). Fluorescent microscope model was Nikon, Eclipse E400 and the software was SPOT advanced version 3.5.5 by Diagnostic Instruments Inc. (Sterling Heights, MI, USA).
Figure 6 Graphs showing apoptosis induced in (A) MCF-7 and (B) T47D cells as determined by TUNEL. […] TUNEL-stained apoptotic cells were counted against the DAPI stained cells to obtain percentage apoptosis. The experiments were repeated thrice with similar results. Error bars show s.e.m of three different fields of treated cells, statistically significant ^*P<0.01 and ^**P<0.001 vs control.

The subject of another test is AP1 activity. The experiment in a line: Anti-AP1 assay (AP-1 CAT reporter, CV-1 cells cotransfected with RAR subtypes). It counts as cell-based. As to conditions: 10^−6 M; each of the three RAR subtypes cotransfected. The method, then: The ability of each RAMBA to inhibit AP1 activity was determined using anti-AP1 assays as we have described previously ([Soprano et al, 2000]). Briefly, CV-1 cells were cotransfected with 1.5 μg RAR subtype (RARα, RARβ and RARγ) expression vector construct in pSG5, 1.5 μg AP-1 CAT reporter DNA and 0.5 μg pCMV-β-gal DNA. […] Twenty-four hours later, the cells were harvested and CAT and β-gal activities were assayed. The percentage of AP-1 activity was calculated using the ethanol carrier control sample as 100%.

In the next test the test system is PARP. As to the kind of experiment: Western immunoblotting for cleaved PARP in T47D cells. The format is cell-based, human. As to conditions: 6 days. The method, then:
as §1, §2
Figure 7 (A) Western immunoblotting of whole-cell lysates of treated MCF-7 and T47D cells for the expression of Bad. […] Numbers below the blot show fold increase in expression of the protein as analysed by ImageQuant densitometry analysis. […]

Bounds are passed on as bounds.

Turning to `CC1=C(/C=C/C(C)=C/C=C/C(C)=C/C(=O)Nc2ccc(O)cc2)C(C)(C)CCC1n1ccnc1` (stereo not drawn) [VN/66-1], the IC50 (in general, the concentration at which inhibition is half-maximal) in the test with MDA-MB-231 cells was 5.62 µM.
On to `CC1=C(/C=C/C(C)=C/C=C/C(C)=C/C(=O)O)C(C)(C)CCC1` [ATRA, all-trans-retinoic acid, reference compound], for which the “Decrease of cyclin D1 protein expression compared with untreated control” value in the test with cyclin D1 was more than 80%.
In the case of `CC1=C(/C=C/C(C)=C/C=C/C(C)=C\C(=O)Nc2ccc(O)cc2)C(C)(C)CCC1n1ccnc1` (stereo not drawn) [VN/69-1], the “Induction of apoptosis (TUNEL), T47D” value with T47D cells is “least effective of the RAMBAs in inducing apoptosis”.
Turning to `CC1=C(/C=C/C(C)=C/C=C/C(C)=C/C(=O)O)C(C)(C)CCC1n1ccnc1` (stereo not drawn) [VN/14-1], in the test with AP1 activity, the “Reduction of AP1-dependent transcription activity” value is given as 20–40%. Further, the entries for the “Increase in level of cleaved PARP compared with control” value in the test on PARP (1 μM) and with PARP (5 μM) were 6.3 fold and 7.5 fold, respectively.

Source of the values: paper PMC2360155, “Novel retinoic acid metabolism blocking agents have potent inhibitory activities on human breast cancer cells and tumour growth” (British Journal of Cancer, 2007).
